This is an account of results in PubChem BioAssay (NCI).

Values joined by “and” are separate entries in the source; they are usually repeats but may differ in a detail not shown here. Equal entries are not always repeated.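 Results reflect a 48-hour exposure of cells in 96-well plates to compound at five concentrations. At the GI50, growth is halved. Definition used: TGI = concentration required for complete inhibition of growth.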

Some test systems named below: CCRF-CEM leukemia; NCI-H226 lung; SNB-19 CNS; A498 renal; SNB-75 CNS; OVCAR-8 ovarian; SN12C renal; SF-539 CNS; NCI-H23 lung; TK-10 renal.
Common to all, as to test: NCI-60 cell line screen, 48 h

Consider `Cc1ccccc1N=Nc1c(-c2ccccc2)nn(C(=O)CC(=O)Nc2cccc(Cl)c2)c1-c1ccccc1`, for which the TGI in the assay on CCRF-CEM leukemia is 25.4 µM; in the assay with NCI-H226 lung, more than 31.6 µM; in the assay with SNB-19 CNS, more than 100 µM; with A498 renal it was 29.9 µM; in the assay with SNB-75 CNS, more than 31.6 µM; in the assay on OVCAR-8 ovarian, more than 31.6 µM. Also, the TGI was 22.9 µM with SN12C renal, more than 31.6 µM with SF-539 CNS and more than 31.6 µM in the assay with NCI-H23 lung.
Regarding `CN(C)CCCCCNc1c2ccccc2nc2cccc([N+](=O)[O-])c12`, the TGI with CCRF-CEM leukemia was > 0.1 µM and 0.0102 µM; in the assay with NCI-H226 lung it was 0.057 µM; with TK-10 renal, 0.0207 µM; with SNB-19 CNS, > 0.0231 µM and 0.0317 µM; in the assay on A498 renal it was 0.00758 µM; in the assay on SNB-75 CNS, 0.00534 µM. Moreover, the TGI with SF-539 CNS was 0.00979 µM and 0.0157 µM; in the assay with NCI-H23 lung, 0.00344 µM and 0.00234 µM. Further, the GI50 in the assay on NCI-H23 lung is 0.00162 µM.
In the case of `S=C(CSc1ccccc1)Nc1cccc2ccccc12`, the TGI in the assay on NCI-H226 lung is more than 100 µM; with TK-10 renal, more than 100 µM; in the assay on SNB-19 CNS it was more than 100 µM; in the assay with A498 renal, 71 µM; with SNB-75 CNS it was more than 100 µM; with OVCAR-8 ovarian, more than 100 µM. In addition, the TGI in the assay on SN12C renal was more than 100 µM; in the assay with SF-539 CNS, 76.4 µM; in the assay on NCI-H23 lung, more than 100 µM.
For the compound `O=C(O)Cn1ccc2ccccc21`, the GI50 in the assay with CCRF-CEM leukemia, in the assay with NCI-H226 lung, in the assay with SNB-19 CNS, in the assay on A498 renal, in the assay with SNB-75 CNS and in the assay on OVCAR-8 ovarian was more than 100 µM throughout. In addition, the GI50 with SN12C renal, in the assay on SF-539 CNS and in the assay on NCI-H23 lung was more than 100 µM each time. The TGI with CCRF-CEM leukemia, in the assay with NCI-H226 lung, with SNB-19 CNS, in the assay on A498 renal, in the assay with SNB-75 CNS and in the assay on OVCAR-8 ovarian was more than 100 µM throughout. The TGI with SN12C renal, in the assay with SF-539 CNS and with NCI-H23 lung was more than 100 µM throughout.
Turning to `CC(=O)O[C@H](C[C@H](C(C)C)N(C)C(=O)[C@@H](NC(=O)[C@H]1CCCCN1C)C(C)C)c1cccc(C(=O)N[C@@H](Cc2ccccc2)C[C@H](C)C(=O)O)n1`, the GI50 is 0.0175 µM in the assay with CCRF-CEM leukemia; 0.067 µM in the assay on NCI-H226 lung; 0.0343 µM with SNB-19 CNS; 0.0158 µM in the assay on A498 renal; 0.00695 µM with SNB-75 CNS; 0.0475 µM in the assay on OVCAR-8 ovarian. Besides, the GI50 was 0.044 µM in the assay with SN12C renal, 0.0193 µM with SF-539 CNS and 0.051 µM in the assay on NCI-H23 lung. Further, the TGI in the assay on CCRF-CEM leukemia was more than 25 µM; in the assay on NCI-H226 lung it was 5.36 µM; with SNB-19 CNS, more than 25 µM; in the assay on A498 renal, 0.0737 µM; in the assay on SNB-75 CNS, more than 25 µM; in the assay with OVCAR-8 ovarian it was more than 25 µM. The TGI in the assay with SN12C renal was more than 25 µM; in the assay on SF-539 CNS it was 0.0626 µM; in the assay with NCI-H23 lung, more than 25 µM.
With `CC1(C)C(=O)C(=Cc2ccco2)C1=O`, the TGI in the assay on CCRF-CEM leukemia, in the assay on NCI-H226 lung, in the assay on TK-10 renal, in the assay with A498 renal, with SNB-75 CNS and in the assay on OVCAR-8 ovarian was more than 100 µM in each case. Also, the TGI with SN12C renal, in the assay on SF-539 CNS and in the assay on NCI-H23 lung was more than 100 µM in each case.
Consider `CCOC(=O)C#Cc1c(C(=O)OCC)nnn1[C@@H]1O[C@H](CO)[C@H]2OC3(CCCCC3)O[C@H]21`, for which the GI50 in the assay on CCRF-CEM leukemia was 1.62 µM; with NCI-H226 lung, 1.72 µM; with TK-10 renal, 1.79 µM; with SNB-19 CNS it was 18.3 µM; with A498 renal, 17.6 µM; with SNB-75 CNS, 11.5 µM. The GI50 was 3.81 µM in the assay with OVCAR-8 ovarian, 3.11 µM in the assay with SN12C renal and 10.1 µM in the assay on NCI-H23 lung. Also, the TGI with CCRF-CEM leukemia was found to be 4.85 µM; in the assay on NCI-H226 lung, 3.17 µM; in the assay with TK-10 renal, 3.28 µM; in the assay with SNB-19 CNS, 40.5 µM; in the assay with A498 renal, 31.8 µM; in the assay with SNB-75 CNS it was 24.2 µM. Besides, the values for the TGI with OVCAR-8 ovarian, in the assay with SN12C renal and with NCI-H23 lung were 13.2 µM, 9.37 µM and 28.4 µM, respectively.
`CCC[CH2][Sn]([CH2]CCC)([CH2]CCC)[O]C(=O)C(OC)c1ccccc1` (stereo unspecified): the GI50 with NCI-H226 lung was 0.104 µM; in the assay on TK-10 renal it was 0.263 µM; with SNB-19 CNS it was 0.156 µM; with A498 renal it was 0.123 µM; in the assay with SNB-75 CNS, 0.0824 µM; with OVCAR-8 ovarian, 0.141 µM. In addition, the GI50 was 0.117 µM in the assay with SN12C renal, 0.134 µM with SF-539 CNS and 0.0499 µM in the assay on NCI-H23 lung. Further, the TGI stood at 0.252 µM in the assay with NCI-H226 lung; 0.984 µM in the assay with TK-10 renal; 0.301 µM in the assay on SNB-19 CNS; 0.263 µM with A498 renal; 0.513 µM in the assay on SNB-75 CNS; 0.272 µM in the assay with OVCAR-8 ovarian. In addition, the TGI amounted to 0.24 µM in the assay on SN12C renal, 0.268 µM in the assay on SF-539 CNS and 0.179 µM with NCI-H23 lung.
On to `O=C(CN(/C=C/C(=O)C(F)(F)F)c1ccccc1)c1ccc(Cl)cc1`, for which the GI50 with CCRF-CEM leukemia was 21 µM; in the assay on NCI-H226 lung, 18.1 µM; in the assay on TK-10 renal, 28 µM; with SNB-19 CNS, 22 µM; with A498 renal, 20.4 µM; with OVCAR-8 ovarian, 18.6 µM. Also, the GI50 in the assay on SN12C renal was 16 µM; in the assay on SF-539 CNS, 22.7 µM; in the assay with NCI-H23 lung, 17.1 µM. Further, the TGI was 49.9 µM in the assay with CCRF-CEM leukemia; 33.1 µM in the assay with NCI-H226 lung; 88.2 µM with TK-10 renal; 51.5 µM with SNB-19 CNS; 42.2 µM in the assay with A498 renal; 45.5 µM in the assay with OVCAR-8 ovarian. Moreover, the TGI with SN12C renal turned out to be 29.9 µM; in the assay with SF-539 CNS, 47 µM; in the assay with NCI-H23 lung, 35.4 µM.
